Test results: article PMC5574958, “Radiosynthesis and Preclinical Evaluation of [^18F]F-DPA, A Novel Pyrazolo[1,5a]pyrimidine Acetamide TSPO Radioligand, in Healthy Sprague Dawley Rats” (Molecular Imaging and Biology, 2017)

How the values were obtained:
CBR = settings: read-out: K i CBR (selectivity); cited from earlier work
TSPO = settings: read-out: K i (TSPO affinity); cited from earlier work
[1] = RadioTLC analyses of radiometabolites in plasma and brain homogenates; assay type: in vivo, Sprague Dawley rats; settings: 90 min after injection, n = 3
Protocol: The blood samples were taken into Li-heparin tubes and centrifuged (3000×g, 10 min). The plasma was transferred to an Eppendorf tube and the plasma proteins were precipitated by addition of 1.5 parts of MeOH by volume. Following a further centrifugation (12,000×g, 4 min), 20 μl of the supernatant was spotted onto an aluminum-backed silica gel 60/Kieselguhr F254 TLC plate (EMD Millipore 1.05567.0001, Merck Millipore, Darmstadt, Germany).
Brain samples from the cortex were homogenized with approximately 200 μl of 1:1 v/v of MeOH and water; the mixture was transferred to an Eppendorf tube and centrifuged (12,000×g, 4 min). An aliquot (20 μl) of the supernatant was spotted onto the TLC plate.
The TLC plates were developed with a mixture of dichloromethane and methanol (9:1, v/v) for a distance of 6 cm. Following this, the plates were exposed onto an imaging plate (Fuji BAS Imaging Plate TR2025, Fuji Photo Film Co., Ltd., Tokyo, Japan) for approximately two half-lives of fluorine-18 (3.5 to 4 h). After the exposure, the imaging plates were scanned using a BAS-5000 reader (Fuji, Japan) with a resolution of 50 μm and the saved images were analyzed using TINA software (version 2.10 g, Raytest, Isotopenmessgeräte, GmbH, Straubenhardt, Germany).

Ex vivo biodistribution = assay type: in vivo, Sprague Dawley rats; settings: for Uptake of fluorine-18-radioactivity, Harderian gland / Uptake of fluorine-18-radioactivity, Brain / Uptake of fluorine-18-radioactivity, Brown fat / Uptake of fluorine-18-radioactivity, Eye x2 / Uptake of fluorine-18-radioactivity, Injection site (tail) / Uptake of fluorine-18-radioactivity, Large int. Wall + contents / Uptake of fluorine-18-radioactivity, Liver / Uptake of fluorine-18-radioactivity, Lung / Uptake of fluorine-18-radioactivity, Muscle / Uptake of fluorine-18-radioactivity, Salivary x2 / Uptake of fluorine-18-radioactivity, Small int. wall + contents / Uptake of fluorine-18-radioactivity, Stomach wall + contents / Uptake of fluorine-18-radioactivity, Testis: mean, n = 3
Protocol: After sacrifice (5, 15, 30, 60, and 90 min after injection, n = 3, for every time point and radiotracer), the blood was collected into Li-heparin tubes and transcardial perfusion with saline was conducted rapidly in order to eliminate the blood from the whole body. Following this, the organs of the animals were collected, individually weighed, and the radioactivity was measured using a gamma counter (Wizard^2 3 × 3″, PerkinElmer, Turku, Finland). The decay-corrected radioactivity is reported as percentage of injected dose per gram (%ID/g).

[2] = Plasma protein binding (ultrafiltration of plasma after tracer injection); assay type: in vivo, Sprague Dawley rats; settings: 15 min after injection, 30 kDa ultrafiltration, n = 3
Protocol: After 15 min, the animals were sacrificed and the blood was collected into Li-heparin tubes and centrifuged (3000×g, 10 min). A 10-μl aliquot of the plasma was spotted onto a TLC plate; following this, the remaining plasma was filtered by ultrafiltration using Microsep 30K Omega (Pall Life Sciences, Mexico) with a cut-off of 30 kDa. A 10-μl aliquot of the resulting supernatant was also spotted onto the TLC plate. The plates were exposed onto an imaging plate (Fuji BAS Imaging Plate TR2025, Fuji Photo Film Co., Ltd., Tokyo, Japan) for approximately two half-lives of fluorine-18 (3.5 to 4 h). After the exposure, the imaging plates were scanned using a BAS-5000 reader (Fuji, Japan) with a resolution of 50 μm and the saved images were analyzed using TINA software (version 2.10 g, Raytest, Isotopenmessgeräte, GmbH, Straubenhardt, Germany).

For `CCN(CC)C(=O)Cc1c(-c2ccc(F)cc2)nn2c(C)cc(C)nc12` [F-DPA, N,N-Diethyl-2-(2-(4-fluorophenyl)-5,7-dimethylpyrazolo[1,5-a]pyrimidin-3-yl)acetamide], the Ki (CBR) is given as > 1000 nM and the Ki (TSPO) is given as 1.7 nM.

In the case of `CCN(CC)C(=O)Cc1c(-c2ccc(OCC[18F])cc2)nn2c(C)cc(C)nc12` [[^18F]DPA-714, reference compound], the Ki (CBR) is listed as > 1000 nM, the “Unchanged radiotracer, share of radioactivity in the brain” value ([1]; brain homogenate) is listed as 53.6 ± 1.6% and the “Unchanged radiotracer, share of radioactivity in the plasma” value ([1]; plasma) is listed as 11.1 ± 2.6%. The “Uptake of fluorine-18-radioactivity, Harderian gland” value (“Uptake … Harderian gland” for short) (Ex vivo biodistribution; 5 min after injection) was 0.40 %ID/g tissue, the “Uptake … Harderian gland” value (Ex vivo biodistribution; 15 min after injection) was 0.52 %ID/g tissue and the “Uptake … Harderian gland” value (Ex vivo biodistribution; 30 min after injection) was 0.45 %ID/g tissue. For the same molecule, the “Uptake … Harderian gland” value (Ex vivo biodistribution; 60 min after injection) was 0.54 %ID/g tissue, the “Uptake … Harderian gland” value (Ex vivo biodistribution; 90 min after injection) was 0.43 %ID/g tissue and the “Accumulation of radioactivity in the bone (defluorination in vivo)” value (Ex vivo biodistribution; after the initial uptake at 5 min, up to 90 min) was “no significant accumulation of radioactivity in the bone”. The “Uptake of fluorine-18-radioactivity, Brain” value (shortened to “Uptake … Brain”) (Ex vivo biodistribution; 5 min after injection) was 0.29 %ID/g tissue, the “Uptake … Brain” value (Ex vivo biodistribution; 15 min after injection) was 0.17 %ID/g tissue and the “Uptake … Brain” value (Ex vivo biodistribution; 30 min after injection) was 0.12 %ID/g tissue. The “Uptake … Brain” value (Ex vivo biodistribution; 60 min after injection) was 0.09 %ID/g tissue, the “Uptake … Brain” value (Ex vivo biodistribution; 90 min after injection) was 0.08 %ID/g tissue and the “Uptake of fluorine-18-radioactivity, Brown fat” value (from here on “Uptake … Brown fat”) (Ex vivo biodistribution; 5 min after injection) was 0.22 %ID/g tissue. For the same molecule, the “Uptake … Brown fat” value (Ex vivo biodistribution; 15 min after injection) was 0.31 %ID/g tissue, the “Uptake … Brown fat” value (Ex vivo biodistribution; 30 min after injection) was 0.51 %ID/g tissue and the “Uptake … Brown fat” value (Ex vivo biodistribution; 60 min after injection) was 1.07 %ID/g tissue. The “Uptake … Brown fat” value (Ex vivo biodistribution; 90 min after injection) was 1.25 %ID/g tissue, the “Uptake of fluorine-18-radioactivity, Eye x2” value (“Uptake … Eye x2” for short) (Ex vivo biodistribution; eye x2, 5 min after injection) was 0.28 %ID/g tissue and the “Uptake … Eye x2” value (Ex vivo biodistribution; eye x2, 15 min after injection) was 0.29 %ID/g tissue. The “Uptake … Eye x2” value (Ex vivo biodistribution; eye x2, 30 min after injection) was 0.26 %ID/g tissue, the “Uptake … Eye x2” value (Ex vivo biodistribution; eye x2, 60 min after injection) was 0.22 %ID/g tissue and the “Uptake … Eye x2” value (Ex vivo biodistribution; eye x2, 90 min after injection) was 0.20 %ID/g tissue. For the same molecule, the “Uptake of fluorine-18-radioactivity, Injection site (tail)” value (from here on “Uptake … (tail)”) (Ex vivo biodistribution; 5 min after injection) was 0.49 %ID/g tissue, the “Uptake … (tail)” value (Ex vivo biodistribution; 15 min after injection) was 0.29 %ID/g tissue and the “Uptake … (tail)” value (Ex vivo biodistribution; 30 min after injection) was 0.34 %ID/g tissue. The “Uptake … (tail)” value (Ex vivo biodistribution; 60 min after injection) was 0.38 %ID/g tissue, the “Uptake … (tail)” value (Ex vivo biodistribution; 90 min after injection) was 0.24 %ID/g tissue and the “Uptake of fluorine-18-radioactivity, Large int. Wall + contents” value (from here on “Uptake … Large int. Wall + contents”) (Ex vivo biodistribution; 5 min after injection) was 0.20 %ID/g tissue. The “Uptake … Large int. Wall + contents” value (Ex vivo biodistribution; 15 min after injection) was 0.24 %ID/g tissue, the “Uptake … Large int. Wall + contents” value (Ex vivo biodistribution; 30 min after injection) was 0.26 %ID/g tissue and the “Uptake … Large int. Wall + contents” value (Ex vivo biodistribution; 60 min after injection) was 0.41 %ID/g tissue. The “Uptake … Large int. Wall + contents” value (Ex vivo biodistribution; 90 min after injection) was 0.29 %ID/g tissue, the “Uptake of fluorine-18-radioactivity, Liver” value (from here on “Uptake … Liver”) (Ex vivo biodistribution; 5 min after injection) was 0.78 %ID/g tissue and the “Uptake … Liver” value (Ex vivo biodistribution; 15 min after injection) was 0.87 %ID/g tissue. For the same molecule, the “Uptake … Liver” value (Ex vivo biodistribution; 30 min after injection) was 0.60 %ID/g tissue, the “Uptake … Liver” value (Ex vivo biodistribution; 60 min after injection) was 0.37 %ID/g tissue and the “Uptake … Liver” value (Ex vivo biodistribution; 90 min after injection) was 0.26 %ID/g tissue. For the same molecule, the “Uptake of fluorine-18-radioactivity, Lung” value (“Uptake … Lung” for short) (Ex vivo biodistribution; 5 min after injection) was 19.83 %ID/g tissue, the “Uptake … Lung” value (Ex vivo biodistribution; 15 min after injection) was 10.24 %ID/g tissue and the “Uptake … Lung” value (Ex vivo biodistribution; 30 min after injection) was 5.73 %ID/g tissue. The “Uptake … Lung” value (Ex vivo biodistribution; 60 min after injection) was 3.01 %ID/g tissue, the “Uptake … Lung” value (Ex vivo biodistribution; 90 min after injection) was 2.00 %ID/g tissue and the “Uptake of fluorine-18-radioactivity, Muscle” value (“Uptake … Muscle” below) (Ex vivo biodistribution; 5 min after injection) was 0.07 %ID/g tissue. For the same molecule, the “Uptake … Muscle” value (Ex vivo biodistribution; 15 min after injection) was 0.07 %ID/g tissue, the “Uptake … Muscle” value (Ex vivo biodistribution; 30 min after injection) was 0.11 %ID/g tissue and the “Uptake … Muscle” value (Ex vivo biodistribution; 60 min after injection) was 0.16 %ID/g tissue. The “Uptake … Muscle” value (Ex vivo biodistribution; 90 min after injection) was 0.18 %ID/g tissue, the “Uptake of fluorine-18-radioactivity, Salivary x2” value (“Uptake … Salivary x2” for short) (Ex vivo biodistribution; salivary x2, 5 min after injection) was 0.59 %ID/g tissue and the “Uptake … Salivary x2” value (Ex vivo biodistribution; salivary x2, 15 min after injection) was 1.34 %ID/g tissue. For the same molecule, the “Uptake … Salivary x2” value (Ex vivo biodistribution; salivary x2, 30 min after injection) was 0.88 %ID/g tissue, the “Uptake … Salivary x2” value (Ex vivo biodistribution; salivary x2, 60 min after injection) was 1.00 %ID/g tissue and the “Uptake … Salivary x2” value (Ex vivo biodistribution; salivary x2, 90 min after injection) was 0.89 %ID/g tissue. For the same molecule, the “Uptake of fluorine-18-radioactivity, Small int. wall + contents” value (shortened to “Uptake … Small int. wall + contents”) (Ex vivo biodistribution; 5 min after injection) was 0.69 %ID/g tissue, the “Uptake … Small int. wall + contents” value (Ex vivo biodistribution; 15 min after injection) was 1.07 %ID/g tissue and the “Uptake … Small int. wall + contents” value (Ex vivo biodistribution; 30 min after injection) was 1.44 %ID/g tissue. For the same molecule, the “Uptake … Small int. wall + contents” value (Ex vivo biodistribution; 60 min after injection) was 1.80 %ID/g tissue, the “Uptake … Small int. wall + contents” value (Ex vivo biodistribution; 90 min after injection) was 2.04 %ID/g tissue and the “Uptake of fluorine-18-radioactivity, Stomach wall + contents” value (shortened to “Uptake … Stomach wall + contents”) (Ex vivo biodistribution; 5 min after injection) was 0.27 %ID/g tissue. For the same molecule, the “Uptake … Stomach wall + contents” value (Ex vivo biodistribution; 15 min after injection) was 0.65 %ID/g tissue, the “Uptake … Stomach wall + contents” value (Ex vivo biodistribution; 30 min after injection) was 0.43 %ID/g tissue and the “Uptake … Stomach wall + contents” value (Ex vivo biodistribution; 60 min after injection) was 0.33 %ID/g tissue. The “Uptake … Stomach wall + contents” value (Ex vivo biodistribution; 90 min after injection) was 0.44 %ID/g tissue, the “Uptake of fluorine-18-radioactivity, Testis” value (“Uptake … Testis” below) (Ex vivo biodistribution; 5 min after injection) was 0.11 %ID/g tissue and the “Uptake … Testis” value (Ex vivo biodistribution; 15 min after injection) was 0.10 %ID/g tissue. The “Uptake … Testis” value (Ex vivo biodistribution; 30 min after injection) was 0.13 %ID/g tissue, the “Uptake … Testis” value (Ex vivo biodistribution; 60 min after injection) was 0.14 %ID/g tissue and the “Uptake … Testis” value (Ex vivo biodistribution; 90 min after injection) was 0.14 %ID/g tissue. For the same molecule, the “Fraction of radioactivity unbound to the plasma proteins” value [2] was 32.8 ± 8.8%.
